One experiment concerns the target Cannabinoid receptor 1 (Homo sapiens, UniProt P21554). The experiment can be described thus: Displacement of [3H]-CP-55940 from human CB1 receptor transfected in CHOK1 cells after 90 mins by liquid scintillation counting analysis. In kind it is cell-based, CHO-K1.
Experiment [1] concerns the target Cannabinoid receptor 2 (Mus musculus) (UniProt P47936). In words: Binding affinity to CB2 receptor in mouse spleen at 0.4 nM after 15 mins by autoradiography in presence of GW405833. Conditions: tested as the 11C-labelled form.
Experiment [2] has as its target Cannabinoid receptor 2 (Rattus norvegicus) (UniProt Q9QZN9). In words: Binding affinity to CB2 receptor in rat spleen at 0.4 nM after 15 mins by autoradiography in presence of GW405833. The class given is tissue-based. The note with it: tested as the 11C-labelled form.

Each structure is given as a SMILES string. Activity calls are given as the source filed them. The rule behind the calls is not given here. Bounds are passed on as bounds.

Chain of Cannabinoid receptor 1 (P21554 whole entry): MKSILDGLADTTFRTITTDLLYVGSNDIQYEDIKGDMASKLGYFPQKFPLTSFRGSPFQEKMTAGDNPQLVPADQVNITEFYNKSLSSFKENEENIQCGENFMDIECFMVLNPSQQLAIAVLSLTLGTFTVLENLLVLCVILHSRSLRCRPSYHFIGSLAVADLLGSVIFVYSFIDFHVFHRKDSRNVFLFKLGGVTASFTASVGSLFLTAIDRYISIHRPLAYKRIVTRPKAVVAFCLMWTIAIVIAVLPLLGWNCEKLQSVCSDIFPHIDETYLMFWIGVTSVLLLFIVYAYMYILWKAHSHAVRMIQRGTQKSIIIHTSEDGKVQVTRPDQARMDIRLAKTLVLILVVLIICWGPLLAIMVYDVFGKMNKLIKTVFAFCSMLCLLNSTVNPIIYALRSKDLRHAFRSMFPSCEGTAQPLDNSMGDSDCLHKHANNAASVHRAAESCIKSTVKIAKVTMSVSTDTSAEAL
Chain of Cannabinoid receptor 2 (Rattus norvegicus) (Q9QZN9 whole entry): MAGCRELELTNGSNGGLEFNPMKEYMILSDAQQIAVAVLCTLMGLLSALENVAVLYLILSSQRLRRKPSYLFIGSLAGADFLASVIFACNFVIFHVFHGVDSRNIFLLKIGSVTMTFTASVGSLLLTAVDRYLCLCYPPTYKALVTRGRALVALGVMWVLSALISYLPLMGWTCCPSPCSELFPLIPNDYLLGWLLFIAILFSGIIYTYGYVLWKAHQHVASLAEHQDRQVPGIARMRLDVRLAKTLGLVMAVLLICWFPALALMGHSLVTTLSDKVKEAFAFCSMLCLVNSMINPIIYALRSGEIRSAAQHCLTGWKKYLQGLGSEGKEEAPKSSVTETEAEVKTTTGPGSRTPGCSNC
Chain of Cannabinoid receptor 2 (Mus musculus) (P47936 whole entry): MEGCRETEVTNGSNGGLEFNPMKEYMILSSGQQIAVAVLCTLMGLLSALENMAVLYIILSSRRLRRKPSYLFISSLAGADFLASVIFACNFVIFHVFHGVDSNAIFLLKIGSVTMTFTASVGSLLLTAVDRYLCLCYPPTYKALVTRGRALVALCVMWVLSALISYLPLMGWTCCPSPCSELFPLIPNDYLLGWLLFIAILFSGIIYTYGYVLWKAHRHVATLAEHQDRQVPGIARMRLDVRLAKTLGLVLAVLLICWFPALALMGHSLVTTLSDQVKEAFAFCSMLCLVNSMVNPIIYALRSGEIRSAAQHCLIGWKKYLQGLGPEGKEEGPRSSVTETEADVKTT

The compound `CCCCn1cc(C(=O)NC23CC4CC(CC(C4)C2)C3)c(=O)c2cccc(OC)c21` came in with a Ki at Cannabinoid receptor 1 above 10 µM.

Regarding `CCOCCn1cc(C(=O)NC23CC4CC(CC(C4)C2)C3)c(=O)c2cccc(OC)c21`, the outcome in experiment [1] and in experiment [2] was inactive. Moreover, the Ki on Cannabinoid receptor 1 was above 10 µM.

At Cannabinoid receptor 1, `COc1cccc2c(=O)c(C(=O)NC(C)(C)C)cn(CCCF)c12` yielded a Ki above 10 µM. `CCCCn1cc(C(=O)NC2CCCC2)c(=O)c2cccc(OC)c21` returned a Ki on Cannabinoid receptor 1 above 10 µM. The same measure, in the same setting: with `CCOCCn1cc(C(=O)NCCc2ccccc2)c(=O)c2cccc(OC)c21` the figure was above 10 µM.

For the origin of these results see ChEMBL document CHEMBL3407340, “Synthesis, radiolabeling and evaluation of novel 4-oxo-quinoline derivatives as PET tracers for imaging cannabinoid type 2 receptor” (Eur J Med Chem, 2015).
